# Measurements published in patent US12054483B2, “Small molecule inhibitors of DYRK/CLK and uses thereof” (Arizona Board of Regents on Behalf of the University of …, priority 2018, dated 2024).
# pKd: −log10 of the molar value.
# Biological target: DYRK1A (Homo sapiens, UniProt Q13627)
# Test: Affinity testing of compounds with DYRK1A (KD)
# Type: binding
# Conditions: DYRK1A affinity key classes
row,SMILES,pKd
1,"c1cc(-c2cn3cnnc3cn2)ccn1 [Compound 68, 6-(pyridin-4-yl)-[1,2,4]triazolo[4,3-a]pyrazine]",5.00 to 6.30
2,"Cc1nc2ccc(-c3ccncc3)nc2n1-c1ccc(C(=O)NC2CC(F)(F)C2)cc1 [Compound 58, N-(3,3-difluorocyclobutyl)-4-(2-methyl-5-(pyridin-4-yl)-3H-imidazo[4,5-b]pyridin-3-yl)benzamide]",6.30 to 7.00
3,"CN1CCN(c2cnc3ccc(-c4ccncc4)nn23)CC1 [Compound 86, 3-(4-methylpiperazin-1-yl)-6-(pyridin-4-yl)imidazo[1,2-b]pyridazine]",5.00 to 6.30
4,"COc1cc(-c2ccc3ncc(-c4ccc(CN5CCOCC5)cc4)n3n2)ccn1 [Compound 107, 4-(4-(6-(2-methoxypyridin-4-yl)imidazo[1,2-b]pyridazin-3-yl)benzyl)morpholine]",6.30 to 7.00
5,"Nc1cc(-c2ccn3ncc(-c4ccc(CN5CCOCC5)s4)c3n2)ccn1 [Compound 114, 4-(3-(5-(morpholinomethyl)thiophen-2-yl)pyrazolo[1,5-a]pyrimidin-5-yl)pyridin-2-amine]",6.30 to 7.00
6,"Fc1cc(-c2cnc3ccc(-c4ccncc4)nn23)ccc1CN1CCCCC1 [Compound 79, 3-(3-fluoro-4-(piperidin-1-ylmethyl)phenyl)-6-(pyridin-4-yl)imidazo[1,2-b]pyridazine]",6.30 to 7.00
7,"Fc1cnccc1-c1ccc2ncc(-c3ccc(CN4CCOCC4)cc3)n2n1 [Compound 105, 4-(4-(6-(3-fluoropyridin-4-yl)imidazo[1,2-b]pyridazin-3-yl)benzyl)morpholine]",5.00 to 6.30
8,"Cc1nc2ccc(-c3ccnc(N)c3)nc2n1-c1ccc2[nH]ccc2c1 [Compound 150, 4-(3-(1H-indol-5-yl)-2-methyl-3H-imidazo[4,5-b]pyridin-5-yl)pyridin-2-amine]",7.00 to 9.30
9,"Cc1nc2ccc(-c3ccncc3)nc2n1-c1ccc(CN2CC3CCC(C2)O3)cc1 [Compound 122, 3-(4-(2-methyl-5-(pyridin-4-yl)-3H-imidazo[4,5-b]pyridin-3-yl)benzyl)-8-oxa-3-azabicyclo[3.2.1]octane]",7.00 to 9.30
10,"Cc1nc2ccc(-c3ccnc(N)c3)nc2n1-c1ccc(CN2CCOCC2)nc1 [Compound 149, 4-(2-methyl-3-(6-(morpholinomethyl)pyridin-3-yl)-3H-imidazo[4,5-b]pyridin-5-yl)pyridin-2-amine]",5.00 to 6.30
11,"Cc1nc2ccc(-c3ccncc3)nc2n1-c1ccc2[nH]cnc2c1 [Compound 32, 3-(1H-benzo[d]imidazol-5-yl)-2-methyl-5-(pyridin-4-yl)-3H-imidazo[4,5-b]pyridine]",7.00 to 9.30
12,"Cc1nc2ccc(-c3ccnc(N)c3)nc2n1-c1cnc(N2CCOCC2)c(Cl)c1 [Compound 166, 4-(3-(5-chloro-6-morpholinopyridin-3-yl)-2-methyl-3H-imidazo[4,5-b]pyridin-5-yl)pyridin-2-amine]",7.00 to 9.30
13,"Cc1nc2ccc(-c3ccnc(N)c3)nc2n1-c1ccc(N2CCC3(COC3)C2)c(F)c1 [Compound 169, 4-(3-(3-fluoro-4-(2-oxa-6-azaspiro[3.4]octan-6-yl)phenyl)-2-methyl-3H-imidazo[4,5-b]pyridin-5-yl)pyridin-2-amine]",7.00 to 9.30

# Results, then the compound that gave them:
row,pKd,SMILES
1,7.00 to 9.30,"Cc1nc2ccc(-c3ccncc3)nc2n1-c1ccc(CN2C[C@H](C)O[C@@H](C)C2)cc1 [Compound 118, (2S,6S)-2,6-dimethyl-4-(4-(2-methyl-5-(pyridin-4-yl)-3H-imidazo[4,5-b]pyridin-3-yl)benzyl)morpholine]"
2,7.00 to 9.30,"Cc1nc2ccc(-c3ccncc3)nc2n1-c1ccc(CO)cc1 [Compound 115, (4-(2-methyl-5-(pyridin-4-yl)-3H-imidazo[4,5-b]pyridin-3-yl)phenyl)methanol]"
3,7.00 to 9.30,"Cc1nc2ccc(-c3ccnc(N)c3)nc2n1-c1cnc(N2CCOCC2)c(C2CC2)c1 [Compound 163, 4-(3-(5-cyclopropyl-6-morpholinopyridin-3-yl)-2-methyl-3H-imidazo[4,5-b]pyridin-5-yl)pyridin-2-amine]"
4,7.00 to 9.30,"Fc1c(-c2ccncc2)ccc2ncn(-c3ccc4c(c3)OCO4)c12 [Compound 1, 1-(benzo[d][1,3]dioxol-5-yl)-7-fluoro-6-(pyridin-4-yl)-1H-benzo[d]imidazole]"
5,7.00 to 9.30,"Cc1cn2nc(-c3ccnc(N)c3)ccc2n1 [Compound 25, 4-(2-methylimidazo[1,2-b]pyridazin-6-yl)pyridin-2-amine]"
6,7.00 to 9.30,"COC(=O)c1ccc(-c2cnc3ccc(-c4ccncc4)nn23)cc1 [Compound 72, methyl 4-(6-(pyridin-4-yl)imidazo[1,2-b]pyridazin-3-yl)benzoate]"
7,7.00 to 9.30,"Cc1cc(-n2c(C)nc3ccc(-c4ccnc(N)c4)nc32)cnc1N1CCOCC1 [Compound 162, 4-(2-methyl-3-(5-methyl-6-morpholinopyridin-3-yl)-3H-imidazo[4,5-b]pyridin-5-yl)pyridin-2-amine]"
